From PubChem BioAssay AID1033 (Sanford-Burnham Center for Chemical Genomics, 2008)
The source made the active and inactive calls. The rule behind the calls is not given here.

Biological target: Chaperone protein DnaK (Escherichia coli (strain K12)) (UniProt P0A6Y8)
Experiment: E. coli DnaK SBD ligand binding – biophysical, NMR, chaperone (AID 1033)
Settings: Purified DnaK SBD

Sequence of Chaperone protein DnaK (Escherichia coli (strain K12)) (P0A6Y8 whole entry, looked up): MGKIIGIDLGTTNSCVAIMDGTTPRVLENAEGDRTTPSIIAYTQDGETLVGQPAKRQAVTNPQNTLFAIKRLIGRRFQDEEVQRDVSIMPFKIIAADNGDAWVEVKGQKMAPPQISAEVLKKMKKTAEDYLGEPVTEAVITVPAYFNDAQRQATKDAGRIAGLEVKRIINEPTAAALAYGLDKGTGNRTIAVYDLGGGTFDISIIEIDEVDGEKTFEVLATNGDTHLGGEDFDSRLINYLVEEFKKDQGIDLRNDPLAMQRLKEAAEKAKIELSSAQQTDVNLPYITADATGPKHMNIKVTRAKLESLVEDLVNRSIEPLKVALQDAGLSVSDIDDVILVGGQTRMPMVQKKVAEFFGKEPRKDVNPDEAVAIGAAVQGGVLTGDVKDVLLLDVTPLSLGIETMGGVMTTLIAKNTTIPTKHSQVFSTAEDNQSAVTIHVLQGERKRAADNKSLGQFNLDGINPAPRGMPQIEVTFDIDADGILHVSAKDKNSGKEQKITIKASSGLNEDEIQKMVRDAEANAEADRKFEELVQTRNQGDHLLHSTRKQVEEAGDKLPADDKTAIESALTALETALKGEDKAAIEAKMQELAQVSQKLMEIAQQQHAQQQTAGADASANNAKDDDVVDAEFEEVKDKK

Structure (SMILES)	Kd
S=c1nc(C2CC2)[nH]c2ccccc12	> 4 mM (inactive)
Nc1ncnc2c1ncn2CCN1CCCCC1	> 4 mM (inactive)
CCOC(=O)Cn1cnc2c1c(=O)[nH]c(=O)n2C	> 4 mM (inactive)
CCOC(=O)c1cnn2ccccc12	> 4 mM (inactive)
CC(CC(=O)O)n1cccn1 (stereo not given)	> 4 mM (inactive)
O=c1[nH]cc(N=Cc2ccc(F)cc2)c(=O)[nH]1	> 4 mM (inactive)
O=C1C2CC=C(Cl)CC2C(=O)N1c1ccccc1O (stereo not given)	> 4 mM (inactive)
Cc1n[nH]c(C)c1N	> 4 mM (inactive)
Nc1nnc(C(F)(F)F)s1	> 4 mM (inactive)
CCOc1ccc(C(=O)c2ccc(O)c(O)c2O)cc1	> 4 mM (inactive)
O=C1C[C@@H](c2ccccc2)Oc2cc(O)cc(O)c21	> 4 mM (inactive)
COC1=CC(=O)C=C(OC)C1=O	> 4 mM (inactive)
CC(=O)OC1CCC23CC1(C)CCC2C(C)(C)CC3OC(C)=O (stereo not given)	> 4 mM (inactive)
Cc1cc(C(=O)Nc2sc(C)c(C)c2C#N)c(C)o1	> 4 mM (inactive)
OCc1cc2ccccc2o1	> 4 mM (inactive)
c1ccc(SCc2nc(-c3ccncc3)no2)cc1	> 4 mM (inactive)
CN(C)c1ccc(NC(=O)CC(C(=O)O)N(C)C)cc1 (stereo not given)	> 4 mM (inactive)
Cc1ccc(F)cc1NC(=O)c1ccc2c(c1)OCO2	> 4 mM (inactive)
CC(C)CNc1cc(=O)n(C)c(=O)n1C	> 4 mM (inactive)
NC(=S)NC1CCS(=O)(=O)C1 (stereo not given)	> 4 mM (inactive)
CN(C)c1n[nH]c(=O)[nH]c1=O	> 4 mM (inactive)
O=C(O)c1ccc2[nH]c3c(c2c1)CSCC3	> 4 mM (inactive)

Structure (SMILES)	Kd
Cc1cc(C)n2nc(C(=O)NCc3ccco3)nc2n1	> 4 mM (inactive)
COC(=O)c1c(C)c2c(c(C)c1O)OC(=O)c1c(C)c(Cl)c(O)c(Cl)c1O2	> 4 mM (inactive)
Cc1cc(N2C(=O)CCC2=O)n(-c2ccccc2)n1	> 4 mM (inactive)
O=c1c2c(nc3nc(COc4ccccc4)[nH]n13)CCC2	> 4 mM (inactive)
Cc1ccccc1NC(=S)NCCO	> 4 mM (inactive)
COC(=O)[C@@H]1OC(=O)[C@H]2O[C@@]23[C@@]1(C)CCC1[C@@]2(C)CCC(=O)C(C)(C)C2C[C@@H](OC(C)=O)[C@]13C (stereo not given in full)	> 4 mM (inactive)
COc1ncnc(N)c1[N+](=O)[O-]	> 4 mM (inactive)
COc1ccc(N2C(=O)CCC2=O)c(OC)c1	> 4 mM (inactive)
COc1cc2c(cc1OC)C1=C(C#N)CCC(=O)N1CC2	> 4 mM (inactive)
Cc1noc(C)c1C(=O)N1CCC2(CC1)OCCO2	> 4 mM (inactive)
c1ccc(-c2csc(Nc3cccnc3)n2)nc1	> 4 mM (inactive)
S=C(Cc1cccnc1)N1CCOCC1	> 4 mM (inactive)
S=c1ccc(N2CCCCC2)n[nH]1	> 4 mM (inactive)
COc1ccccc1-c1noc(-c2ccncc2)n1	> 4 mM (inactive)
O=C(O)c1csc(-c2cccs2)n1	> 4 mM (inactive)
Clc1ccc(-c2noc(CN3CCCC3)n2)cc1	> 4 mM (inactive)
Nc1nnc(COc2cccc(C(F)(F)F)c2)s1	> 4 mM (inactive)
CCOc1ccc(C)cc1S(=O)(=O)n1ccc(C)n1	> 4 mM (inactive)
O=C(C1CCC(C(=O)N2CCCC2)CC1)N1CCCC1 (stereo not given)	> 4 mM (inactive)
O=C1C2C3CCC(O3)C2C(=O)N1c1ccccc1 (stereo not given)	> 4 mM (inactive)
OCc1ccc(OC(F)(F)F)cc1	> 4 mM (inactive)
O=C(O)C1Cc2c([nH]c3ccccc23)CN1 (stereo not given)	> 4 mM (inactive)

Structure (SMILES)	Kd
Cc1nn2c(nc1=O)SCC(c1ccccc1)=N2	> 4 mM (inactive)
Cn1c(=O)[nH]c(=O)c2nsnc21	> 4 mM (inactive)
CC(O)C(=O)N/N=C/c1cccs1 (stereo not given)	> 4 mM (inactive)
Cc1nnc(SCC(N)=O)c2ccccc12	> 4 mM (inactive)
O=c1cccc2n1C[C@H]1CNCC2C1	> 4 mM (inactive)
COc1cc2ccc(=O)oc2c2ccoc12	> 4 mM (inactive)
OCc1ccc2nonc2c1	> 4 mM (inactive)
C/C=C(\C)C(=O)O[C@H]1C[C@@H](OC(C)=O)[C@@]2(C(=O)OC)CO[C@@H]3C2[C@]12CO[C@](O)(C(=O)OC)[C@H]2[C@](C)(C12O[C@@]1(C)[C@H]1C[C@@H]2OC2OC=C[C@@]21O)[C@@H]3O (stereo not given in full)	> 4 mM (inactive)
CN1CCC(NC(=S)NC2CC2)CC1	> 4 mM (inactive)
C[C@@H]1CC[C@@]2(NC1)O[C@H]1C[C@H]3C4CC=C5C[C@@H](O)CC[C@]5(C)C4CC[C@]3(C)C1[C@@H]2C (stereo not given in full)	> 4 mM (inactive)
O=C(Nc1ccc(Cl)cn1)c1cnn2cccnc12	> 4 mM (inactive)
CSc1n[nH]c(NCc2cccs2)n1	> 4 mM (inactive)
O=c1[nH]cnc2nc[nH]c12	> 4 mM (inactive)
CCC1=Nc2ccccc2-c2nnc(SC)nc2O1	> 4 mM (inactive)
CC(C)(O)P(C)(=O)c1ccccc1 (stereo not given)	> 4 mM (inactive)
NS(=O)(=O)c1ccc(N=C2NC(=O)CS2)cc1	> 4 mM (inactive)
C=C1C2CC[C@@]3(C)[C@H](c4ccoc4)OC(=O)C[C@]13O[C@H]1CC(=O)C(C)(C)[C@H](C(O)C(=O)OC)[C@@]21C (stereo not given in full)	> 4 mM (inactive)
O=C(CCc1ccc(O)cc1)c1c(O)cc(O)cc1O	> 4 mM (inactive)
CC(=O)O[C@@H]1c2c(ccc3ccc(=O)oc23)OC(C)(C)[C@@H]1OC(=O)CC(C)C	> 4 mM (inactive)
O=C(NCc1cccs1)c1nc2ncccn2n1	inactive
NC[C@H]1O[C@H](O[C@H]2[C@H](O)[C@@H](O[C@H]3O[C@H](CO)[C@@H](O)[C@H](N)[C@H]3O)[C@H](N)C[C@@H]2N)[C@H](N)[C@@H](O)[C@@H]1O	> 4 mM (inactive)
CN(c1ccccc1C(=O)N1CCOCC1)S(C)(=O)=O	> 4 mM (inactive)

Structure (SMILES)	Kd
CCC(C)OC1CCS(=O)(=O)C1 (stereo not given)	> 4 mM (inactive)
OCc1ccc(-n2cccn2)cc1	> 4 mM (inactive)
CCOC(=O)C1=C(C)N2CCN=C2S1	> 4 mM (inactive)
Cc1oc(-c2ccccc2)nc1CCO	> 4 mM (inactive)
Cn1cc(Cl)c(C(=O)NC2CCCC2)n1	> 4 mM (inactive)
CN1CN(Cc2ccccc2)CN/C1=N/[N+](=O)[O-]	> 4 mM (inactive)
Oc1ccc2nonc2c1	> 4 mM (inactive)
CC(=O)c1cc(C)ccc1O	> 4 mM (inactive)
Cc1cc(NC(=O)c2c(F)c(F)c(F)c(F)c2F)no1	> 4 mM (inactive)
COc1cccc(NC(=O)c2cnn(C)c2Cl)c1	> 4 mM (inactive)
Cc1nnc(NCCO)[nH]c1=O	> 4 mM (inactive)
O=C1c2ccncc2C(=O)N1CO	> 4 mM (inactive)
Nc1cccc2nonc12	> 4 mM (inactive)
NC(Cc1c[nH]c2ccccc12)C(=O)O (stereo not given)	> 4 mM (inactive)
COc1cc2c(cc1O)CCNC2C (stereo not given)	> 4 mM (inactive)
Cc1oc(-c2ccccc2)nc1CC(=O)O	> 4 mM (inactive)
Cc1cc(C)n(CC(=O)NC2CCCCC2)n1	> 4 mM (inactive)
NC(=O)C1CCCN1S(=O)(=O)c1ccc(F)cc1 (stereo not given)	> 4 mM (inactive)
CC(=O)NC(c1ccccc1)c1cccnc1 (stereo not given)	> 4 mM (inactive)
